Values quoted from earlier work in publication PMC2818531 (Bioorganic & medicinal chemistry letters, 2009).

Target: HIV gp41 six-helix bundle (6-HB) (Human immunodeficiency virus type 1 group M subtype B, UniProt P04578)
Conditions: read-out: EC50, inhibition of gp41 6-helical bundle formation

HIV gp41 six-helix bundle (6-HB), sequence (P04578 546-581): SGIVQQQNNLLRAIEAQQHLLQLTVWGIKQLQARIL

Question: With `Cc1ccc(C)n1-c1ccc(O)c(C(=O)O)c1` [Ligand A12] as the compound, how does the EC50 read?
Answer: Its EC50 is 37.4 µM.
